PubChem BioAssay AID1259407 (Chemical Carcinogenesis Research Information System (CCRIS), 2018)
The source made the active and inactive calls. How the calls were made is not given here.

Test system: CCRIS mutagenicity, Ames/micronucleus/aberration tests
Assay: CCRIS mutagenicity studies
[1] = Test System: AMES SALMONELLA TYPHIMURIUM, Strain/Indicator: TA98, Metabolic Activation: NONE, Method: STANDARD PLATE
[2] = Test System: AMES SALMONELLA TYPHIMURIUM, Strain/Indicator: TA98, Metabolic Activation: RAT, LIVER, S-9, AROCLOR 1254, Method: STANDARD PLATE
[3] = Test System: AMES SALMONELLA TYPHIMURIUM, Strain/Indicator: TA100, Metabolic Activation: NONE, Method: STANDARD PLATE
[4] = Test System: AMES SALMONELLA TYPHIMURIUM, Strain/Indicator: TA100, Metabolic Activation: RAT, LIVER, S-9, AROCLOR 1254, Method: STANDARD PLATE
[5] = Test System: AMES SALMONELLA TYPHIMURIUM, Strain/Indicator: TA98, Metabolic Activation: NONE, Method: PREINCUBATION
[6] = Test System: AMES SALMONELLA TYPHIMURIUM, Strain/Indicator: TA100, Metabolic Activation: NONE, Method: PREINCUBATION
[7] = Test System: AMES SALMONELLA TYPHIMURIUM, Strain/Indicator: TA102, Metabolic Activation: NONE, Method: PREINCUBATION

Structure (SMILES): C=C(C)C(=O)OCCO
- mutagenic call (Test System: AMES SALMONELLA TYPHIMURIUM, Strain/Indicator: TA97A, Metabolic Activation: NONE, Method: STANDARD PLATE): inactive; negative
- mutagenic call [1]: inactive; negative
- mutagenic call [2]: inactive; negative
- mutagenic call (Test System: AMES SALMONELLA TYPHIMURIUM, Strain/Indicator: TA98, Metabolic Activation: RAT, LIVER, S-9, SODIUM PHENOBARBITAL, Method: STANDARD PLATE): inactive; negative
- mutagenic call [3]: inactive; negative
- mutagenic call [4]: inactive; negative
- mutagenic call (Test System: AMES SALMONELLA TYPHIMURIUM, Strain/Indicator: TA100, Metabolic Activation: RAT, LIVER, S-9, SODIUM PHENOBARBITAL, Method: STANDARD PLATE): inactive; negative
- mutagenic call (Test System: AMES SALMONELLA TYPHIMURIUM, Strain/Indicator: TA102, Metabolic Activation: NONE, Method: STANDARD PLATE): inactive; negative
- mutagenic call (Test System: AMES SALMONELLA TYPHIMURIUM, Strain/Indicator: TA104, Metabolic Activation: NONE, Method: STANDARD PLATE): inactive; negative
- mutagenic call (Test System: AMES SALMONELLA TYPHIMURIUM, Strain/Indicator: TA1535, Metabolic Activation: NONE, Method: STANDARD PLATE): inactive; negative
- mutagenic call (Test System: AMES SALMONELLA TYPHIMURIUM, Strain/Indicator: TA1535, Metabolic Activation: RAT, LIVER, S-9, AROCLOR 1254, Method: STANDARD PLATE): inactive; negative
- mutagenic call (Test System: AMES SALMONELLA TYPHIMURIUM, Strain/Indicator: TA1535, Metabolic Activation: RAT, LIVER, S-9, SODIUM PHENOBARBITAL, Method: STANDARD PLATE): inactive; negative
- mutagenic call (Test System: AMES SALMONELLA TYPHIMURIUM, Strain/Indicator: TA1537, Metabolic Activation: NONE, Method: STANDARD PLATE): inactive; negative
- mutagenic call (Test System: AMES SALMONELLA TYPHIMURIUM, Strain/Indicator: TA1537, Metabolic Activation: RAT, LIVER, S-9, AROCLOR 1254, Method: STANDARD PLATE): inactive; negative
- mutagenic call (Test System: AMES SALMONELLA TYPHIMURIUM, Strain/Indicator: TA1537, Metabolic Activation: RAT, LIVER, S-9, SODIUM PHENOBARBITAL, Method: STANDARD PLATE): inactive; negative
- mutagenic call (Test System: AMES SALMONELLA TYPHIMURIUM, Strain/Indicator: TA1538, Metabolic Activation: NONE, Method: STANDARD PLATE): inactive; negative
- mutagenic call (Test System: AMES SALMONELLA TYPHIMURIUM, Strain/Indicator: TA1538, Metabolic Activation: RAT, LIVER, S-9, AROCLOR 1254, Method: STANDARD PLATE): inactive; negative
- mutagenic call (Test System: AMES SALMONELLA TYPHIMURIUM, Strain/Indicator: TA1538, Metabolic Activation: RAT, LIVER, S-9, SODIUM PHENOBARBITAL, Method: STANDARD PLATE): inactive; negative
- mutagenic call (Test System: CHINESE HAMSTER V-79, Strain/Indicator: V79 (HPRT)/6-THIOGUANINE, Metabolic Activation: NONE): inactive; negative

Structure (SMILES): COc1ccccc1NC(=O)c1csc([N+](=O)[O-])c1
- mutagenic call [1]: active; positive
- mutagenic call [3]: active; positive

Structure (SMILES): COC1=CC(=O)OC(/C=C/c2ccccc2)C1 (stereo unspecified)
- mutagenic call (Test System: L5178Y ( tk+/tk-), Metabolic Activation: Human, Liver, S-9, Method: Suspension/plate): inactive; negative

Structure (SMILES): O=[N+]([O-])c1cc2c3c(ccc2c2ccccc12)[C@H](O)[C@@H](O)C=C3
- mutagenic call [5]: active; positive
- mutagenic call [1]: inactive; negative
- mutagenic call (Test System: AMES SALMONELLA TYPHIMURIUM, Strain/Indicator: TA98, Metabolic Activation: RAT, LIVER, S-9, AROCLOR 1254, Method: PREINCUBATION): inactive; negative
- mutagenic call [2]: active; positive
- mutagenic call [6]: active; positive
- mutagenic call [3]: active; positive
- mutagenic call (Test System: AMES SALMONELLA TYPHIMURIUM, Strain/Indicator: TA100, Metabolic Activation: RAT, LIVER, S-9, AROCLOR 1254, Method: PREINCUBATION): active; positive
- mutagenic call [4]: active; positive
- mutagenic call (Test System: CHINESE HAMSTER OVARY, Strain/Indicator: CHO-K1-BH4 (HGPRT)/6-THIOGUANINE, Metabolic Activation: NONE, Method: STANDARD PLATE): inactive; negative
- mutagenic call (Test System: CHINESE HAMSTER OVARY, Strain/Indicator: CHO-K1-BH4 (HGPRT)/6-THIOGUANINE, Metabolic Activation: RAT, LIVER, S-9, AROCLOR 1254, Method: STANDARD PLATE): active; positive
- mutagenic call (Test System: CHINESE HAMSTER OVARY, Strain/Indicator: CHO-UV5 (HGPRT)/6-THIOGUANINE, Metabolic Activation: NONE, Method: STANDARD PLATE): inactive; negative
- mutagenic call (Test System: CHINESE HAMSTER OVARY, Strain/Indicator: CHO-UV5 (HGPRT)/6-THIOGUANINE, Metabolic Activation: RAT, LIVER, S-9, AROCLOR 1254, Method: STANDARD PLATE): active; positive

Structure (SMILES): OCC(O)CO
- mutagenic call (End Point: IN VITRO CHROMOSOMAL ABERRATIONS, Test System: CHO-WBL CELLS, Metabolic Activation: NONE): inactive; negative
- mutagenic call (Test System: AMES SALMONELLA TYPHIMURIUM, Strain/Indicator: TA97, Metabolic Activation: NONE, Method: PREINCUBATION): inactive; negative
- mutagenic call (Test System: AMES SALMONELLA TYPHIMURIUM, Strain/Indicator: TA97, Metabolic Activation: RAT, LIVER, S-9, AROCLOR 1254, Method: PREINCUBATION): inactive; negative
- mutagenic call [5]: inactive; negative
- mutagenic call (Test System: AMES SALMONELLA TYPHIMURIUM, Strain/Indicator: TA98, Metabolic Activation: RAT, LIVER, S-9, KC 500, Method: PREINCUBATION): inactive; negative
- mutagenic call [6]: inactive; negative
- mutagenic call (Test System: AMES SALMONELLA TYPHIMURIUM, Strain/Indicator: TA100, Metabolic Activation: RAT, LIVER, S-9, KC 500, Method: PREINCUBATION): inactive; negative
- mutagenic call [7]: inactive; negative
- mutagenic call (Test System: AMES SALMONELLA TYPHIMURIUM, Strain/Indicator: TA102, Metabolic Activation: RAT, LIVER, S-9, AROCLOR 1254, Method: PREINCUBATION): inactive; negative
- mutagenic call (Test System: AMES SALMONELLA TYPHIMURIUM, Strain/Indicator: TA1535, Metabolic Activation: NONE, Method: PREINCUBATION): inactive; negative
- mutagenic call (Test System: AMES SALMONELLA TYPHIMURIUM, Strain/Indicator: TA1535, Metabolic Activation: RAT, LIVER, S-9, KC 500, Method: PREINCUBATION): inactive; negative
- mutagenic call (Test System: AMES SALMONELLA TYPHIMURIUM, Strain/Indicator: TA1537, Metabolic Activation: NONE, Method: PREINCUBATION): inactive; negative
- mutagenic call (Test System: AMES SALMONELLA TYPHIMURIUM, Strain/Indicator: TA1537, Metabolic Activation: RAT, LIVER, S-9, KC 500, Method: PREINCUBATION): inactive; negative
- mutagenic call (Test System: AMES SALMONELLA TYPHIMURIUM, Strain/Indicator: TA1538, Metabolic Activation: NONE, Method: PREINCUBATION): inactive; negative
- mutagenic call (Test System: AMES SALMONELLA TYPHIMURIUM, Strain/Indicator: TA1538, Metabolic Activation: RAT, LIVER, S-9, KC 500, Method: PREINCUBATION): inactive; negative
- mutagenic call (Test System: E. COLI, Strain/Indicator: WP2 UVRA, Metabolic Activation: NONE, Method: PREINCUBATION): inactive; negative
- mutagenic call (Test System: E. COLI, Strain/Indicator: WP2 UVRA, Metabolic Activation: RAT, LIVER, S-9, KC 500, Method: PREINCUBATION): inactive; negative

Structure (SMILES): CN1CC=C(c2ccccc2)CC1
- mutagenic call [6]: inactive; negative
- mutagenic call [7]: inactive; negative

Structure (SMILES): O=C(Nc1ccccc1)c1cc2ccccc2c(N=Nc2cc(Cl)ccc2Cl)c1O
- mutagenic call (Test System: AMES SALMONELLA TYPHIMURIUM, Strain/Indicator: TA98, Metabolic Activation: HAMSTER, LIVER, S-9, AROCLOR 1254 (10%), Method: PREINCUBATION): inactive; negative
- mutagenic call (Test System: AMES SALMONELLA TYPHIMURIUM, Strain/Indicator: TA98, Metabolic Activation: HAMSTER, LIVER, S-9, AROCLOR 1254 (30%), Method: PREINCUBATION): active; positive
- mutagenic call [5]: inactive; negative
- mutagenic call (Test System: AMES SALMONELLA TYPHIMURIUM, Strain/Indicator: TA98, Metabolic Activation: RAT, LIVER, S-9, AROCLOR 1254 (30%), Method: PREINCUBATION): inactive; negative
- mutagenic call (Test System: AMES SALMONELLA TYPHIMURIUM, Strain/Indicator: TA100, Metabolic Activation: HAMSTER, LIVER, S-9, AROCLOR 1254 (30%), Method: PREINCUBATION): inactive; negative
- mutagenic call [6]: inactive; negative
- mutagenic call (Test System: AMES SALMONELLA TYPHIMURIUM, Strain/Indicator: TA100, Metabolic Activation: RAT, LIVER, S-9, AROCLOR 1254 (30%), Method: PREINCUBATION): inactive; negative
- mutagenic call (Test System: AMES SALMONELLA TYPHIMURIUM, Strain/Indicator: TA1538, Metabolic Activation: HAMSTER, LIVER, S-9, AROCLOR 1254 (30%), Method: PREINCUBATION): active; positive
